Experimental data from ChEMBL document CHEMBL4673238, “Discovery of 3-(benzofuran-2-ylmethyl)-1H-indole derivatives as potential autophagy inducers in cervical cancer cells” (Bioorg Med Chem Lett, 2020).
Calls of active or inactive are those of the source. The rule behind the calls is not given here.

What was measured:
Type in all cases: functional, cell-based
SiHa [1] = experiment: Cytotoxicity against human SiHa cells
C-33-A [2] = experiment: Cytotoxicity against human C-33-A cells
SiHa [3] = experiment: Induction of autophagy in human SiHa cells assessed as vacuole formation incubated for 24 hrs by microscopic analysis
SiHa [4] = experiment: Induction of autophagy in human SiHa cells assessed as increase in LC3I to LC3II conversion at 30 uM measured upto 42 hrs by microscopic analysis; details: time hrs <=42
C-33-A [5] = experiment: Induction of autophagy in human C-33-A cells assessed as increase in LC3I to LC3II conversion at 30 uM incubated for 42 hrs by microscopic analysis
SiHa [6] = experiment: Induction of autophagy in human SiHa cells assessed as decrease in p62 expression at 30 uM measured upto 42 hrs by microscopic analysis; details: time hrs <=42
C-33-A [7] = experiment: Induction of autophagy in human C-33-A cells assessed as decrease in p62 expression at 30 uM incubated for 42 hrs by microscopic analysis
SiHa [8] = experiment: Induction of autophagy in human SiHa cells assessed as […] in GFP-LC3 level by fluorescence microscopy

SMILES | IC50 (SiHa [1]) [µM] | other results
Cc1[nH]c2ccccc2c1C(c1ccccc1)c1cc2ccccc2o1 (stereo not given) | 56.5 | 
Cc1c(C(c2ccccc2)c2cc3ccccc3o2)[nH]c2ccccc12 (stereo not given) | > 100 | 
COc1ccc2oc(C(c3ccccc3)c3c(C)[nH]c4ccccc34)cc2c1 (stereo not given) | > 100 | 
O=[N+]([O-])c1ccc2[nH]cc(C(c3ccccc3)c3cc4ccccc4o3)c2c1 (stereo not given) | 40.4 | IC50 (C-33-A [2]): 35.2 µM
Cc1c(C(c2ccccc2)c2cc3cc(Cl)ccc3o2)[nH]c2ccccc12 (stereo not given) | 77.9 | 
Cc1[nH]c2ccccc2c1C(c1ccccc1)c1cc2cc(Cl)ccc2o1 (stereo not given) | 47.5 | IC50 (C-33-A [2]): 38.7 µM
CC(C)(C)c1cc(C(C)(C)C)c2oc(C(c3ccc(Cl)cc3)c3c[nH]c4ccccc34)cc2c1 (stereo not given) | 49.8 | IC50 (C-33-A [2]): 34.2 µM
Clc1ccc2oc(C(c3ccccc3)c3c[nH]c4ccccc34)cc2c1 (stereo not given) | 58 | 
COc1ccc(C(c2cc3ccccc3o2)c2[nH]c3ccccc3c2C)cc1 (stereo not given) | > 100 | 
O=[N+]([O-])c1ccc2[nH]cc(C(c3ccccc3)c3cc4cc(Cl)ccc4o3)c2c1 (stereo not given) | > 100 | 
CC(C)(C)c1cc(C(C)(C)C)c2oc(C(c3ccccc3)c3c[nH]c4ccc([N+](=O)[O-])cc34)cc2c1 (stereo not given) | 48.2 | 
c1ccc(C(c2cc3ccccc3o2)c2c[nH]c3ccccc23)cc1 (stereo not given) | 71.1 | 
Cc1c(C(c2ccccc2)c2cc3cc(C(C)(C)C)cc(C(C)(C)C)c3o2)[nH]c2ccccc12 (stereo not given) | > 100 | 
COc1ccc(C(c2cc3cc(C(C)(C)C)cc(C(C)(C)C)c3o2)c2c[nH]c3ccc([N+](=O)[O-])cc23)cc1 (stereo not given) | > 100 | 
COc1ccc(C(c2cc3ccccc3o2)c2c[nH]c3ccccc23)cc1 (stereo not given) | > 100 | 
CC(C)(C)c1cc(C(C)(C)C)c2oc(C(c3ccccc3)c3c[nH]c4ccccc34)cc2c1 (stereo not given) | 61.6 | 
COc1ccc(C(c2cc3ccccc3o2)c2c(C)[nH]c3ccccc23)cc1 (stereo not given) | > 100 | 
CC(C)(C)c1cc(C(C)(C)C)c2oc(C(c3ccc(Cl)cc3)c3c[nH]c4ccc([N+](=O)[O-])cc34)cc2c1 (stereo not given) | 36.9 | Activity (SiHa [3]): Active; IC50 (C-33-A [2]): 29.4 µM; Activity (SiHa [4]): Active; Activity (C-33-A [5]): Active; Activity (SiHa [6]): Active; Activity (C-33-A [7]): Active; Activity (SiHa [8]): Active
COc1ccc2oc(C(c3ccccc3)c3[nH]c4ccccc4c3C)cc2c1 (stereo not given) | > 100 | 
Cc1[nH]c2ccccc2c1C(c1ccccc1)c1cc2cc(C(C)(C)C)cc(C(C)(C)C)c2o1 (stereo not given) | 72 | 
Cc1[nH]c2ccccc2c1C(c1ccc(Cl)cc1)c1cc2cc(C(C)(C)C)cc(C(C)(C)C)c2o1 (stereo not given) | 35.9 | Activity (SiHa [3]): Active; IC50 (C-33-A [2]): 31.2 µM; Activity (SiHa [4]): Active; Activity (C-33-A [5]): Active; Activity (SiHa [6]): Active; Activity (C-33-A [7]): Active; Activity (SiHa [8]): Active
Cc1c(C(c2ccc(Cl)cc2)c2cc3ccccc3o2)[nH]c2ccccc12 (stereo not given) | 72.5 | 
COc1ccc2oc(C(c3ccccc3)c3c[nH]c4ccccc34)cc2c1 (stereo not given) | > 100 | 
